The text below walks through data of patent US20240180956A1, “A VAGINAL CONTRACEPTIVE COMPOSITION FOR REINFORCEMENT OF THE CERVICAL MUCUS BARRIER PROPERTIES” (CIRQLE BIOMEDICAL CONTRACEPTION APS, priority 2021, published 2024).

This assay relates to human ovulatory cervical mucus. Put plainly: Sperm penetration through human cervical ovulatory mucus (capillary assay, phase contrast microscopy). The format is cell-based. The following applies: PLL 5 mg/mL in 32.5 mM lactic acid; 30 minutes after exposure to undiluted sperm; vs lactic acid solution alone or untreated. On the procedure:
All chitosans were dissolved in a 100 mM or a 32.5 mM lactic acid solution at a concentration of 0.5% (w/v chitosan) and adjusted to pH 5.5 (pH±0.02) by the use of 0.1 or 1 M hydrochloric acid (HCl, Merck KgaA, Germany), and 0.1 or 1 M sodium hydroxide (NaOH, CPAchem Ltd., Bulgaria) or 50% NaOH (Sigma-Aldrich, USA).
Semen samples of patients and volunteers collected at the Andrology, Sexual Medicine, Transmedicine, clinic (ANOVA, Karolinska University Hospital, Sweden) were run through standard semen kinematic analyses and sperm penetration assays no later than 3 h after collection. Data were obtained for the collection time, abstinence time, and semen volume.
Semen was gently liquefied for 30 min on a rocker in an incubation chamber heated up to 37° C., after complete collection of ejaculates by masturbation. The viscosity of semen was determined visually and by pipetting. Semen was microscopically analysed by pipetting 6 μl of specimen in pre-warmed Leja® (Netherland) counting chamber slides (20 micron). Subsequently, specimens were assessed via clinical ECLIPSE 50i microscope (Nikon Instruments, Japan) equipped with stage heater MS 100 (37° C., Linkam Scientific Instruments, UK), 10× objective (Ph1) and 0.5× charge coupled device camera UI-1540LE-M-HQ (IDS Imaging Development Systems GmbH, Germany) with total magnification of 5×. […]

Consider poly-L-lysine [PLL], for which the “sperm detected throughout the capillary filled with ovulatory cervical mucus” value is “Less sperm was detected”.
